Test results from patent US11298369B2, “Composition and uses thereof” (Progen PG500 Series Pty Ltd, priority 2016, dated 2022).

Tests used:
4T1.2 tumours = test: 4T1.2 tumour model: tumour growth inhibition; format: in vivo, Balb/c mice; settings: day 18, PG545 15 mg/kg weekly, antibody 200 μg intraperitoneally days 1, 4, 8, 11, 15
Experimental: Female Balb/c mice (Age 8 weeks; Walter and Eliza Hall Institute of Medical Research (WEHI), Victoria Australia) were inoculated in the intramammary fatpad with 1×10^5 4T1.2 cells in phosphate buffered saline. 4T1.2 is a mouse mammary tumour model.
The experiment was ended on day 18 or earlier if an ethical endpoint was met. Blood was collected via cardiac bleed and serum was prepared and frozen at −80° C.
The percentage tumour growth inhibition was determined according to the following formula: 100×(1−ΔT/ΔC) where ΔC and ΔT were calculated by subtracting the mean tumour volume in each group on day 1 of treatment from the mean tumour volume on the day of analysis. Statistical analysis of the in vivo data was performed using Graph Pad Prism Version 6.0 (Graph Pad La Jolla, Calif.). An ANOVA analysis was performed followed by Dunnett's post hoc test to compare the tumour growth in the treated groups to the vehicle control.

dendritic cell (DC) = settings: cited from earlier work
[1] = system: tumour-associated macrophages (TAMs) and myeloid-derived suppressor cells (MDSCs); settings: preclinical pancreatic cancer models, chemically-induced skin cancer model; cited from earlier work
[2] = mouse, in vivo, 20 mg/kg
Experimental: Mice were weighed and tumours measured 2-3 times weekly using electronic callipers. Tumour volume (mm^3) was calculated as length (mm)/2×width (mm)^2. One week following implantation mice with similar sized tumours (mean tumour volume 56 mm^3) were randomised into 4 groups of 6 animals (Day 1). Treatment groups were saline+control antibody, PG545+control antibody, saline+anti-PD-1 and PG545+anti-PD-1.
[…] Mice received a small dish containing a food supplement (Ensure mixed with food dust) daily.
In FIG. 1, the data represent the mean percent weight change from day 1 for each group; bars are standard error of the mean (SEM). […] It was decided to harvest the experiment on day 18.

advanced solid tumours = settings: cited from earlier work

Q: For `CC(C)CCC[C@@H](C)[C@H]1CC[C@H]2[C@@H]3CC[C@H]4C[C@@H](O[C@@H]5O[C@H](COS(=O)(=O)[O-])[C@@H](O[C@H]6O[C@H](COS(=O)(=O)[O-])[C@@H](O[C@H]7O[C@H](COS(=O)(=O)[O-])[C@@H](O[C@H]8O[C@H](COS(=O)(=O)[O-])[C@@H](OS(=O)(=O)[O-])[C@H](OS(=O)(=O)[O-])[C@H]8OS(=O)(=O)[O-])[C@H](OS(=O)(=O)[O-])[C@H]7OS(=O)(=O)[O-])[C@H](OS(=O)(=O)[O-])[C@H]6OS(=O)(=O)[O-])[C@H](OS(=O)(=O)[O-])[C@H]5OS(=O)(=O)[O-])CC[C@]4(C)[C@H]3CC[C@]12C.[Na+].[Na+].[Na+].[Na+].[Na+].[Na+].[Na+].[Na+].[Na+].[Na+].[Na+].[Na+].[Na+]` [PG545, 3β,5α-Cholestanyl 2,3,4,6-tetra-O-sodium sulfonato-α-D-glucopyranosyl-(1→4)-2,3,6-tri-O-sodium sulfonato-α-D-glucopyranosyl-(1→4)-2,3,6-tri-O-sodium sulfonato-α-D-glucopyranosyl-(1→4)-2,3,6-tri-O-sodium sulfonato-β-D-glucopyranoside], which “Tumour growth inhibition (% TGI)” value (4T1.2 tumours) is on record?
A: 68%

Q: What about the “Activation of T cells” value (dendritic cell (DC); PG545 alone, naïve mice and mice bearing A20 lymphoma tumours) of the same molecule?
A: does not activate T cells

Q: What about the “Activation of NK cells” value (dendritic cell (DC); via effect on DCs) of the same molecule?
A: potent activation

Q: And the “TAMs and MDSCs within the tumour microenvironment” value [1]?
A: depletion

Q: And the “Tolerability (maximum tolerated dose issues)” value [2]?
A: body weight issues

Q: What about the “Reductions in tumour size” value (advanced solid tumours; PG545 monotherapy) of the same molecule?
A: did not lead to reductions in tumour size

Q: And the Maximum tolerated dose (advanced solid tumours; once weekly IV infusion, patients with advanced solid tumours)?
A: 100 mg
